Experimental data: patent US20070203137A1, “New Salt” (ASTRAZENECA AB, priority 2006, published 2007)
Where a name gives a salt, the structure may show the parent alone.

Experiments:
[1] = Photo stability of bulk substance (Suntest CPS+ cabinet); details: 29 hours
Protocol: The exposure was 250 Wh/m^2 and 1.2 million lux hours over 29 hours.

[2] = Hygroscopicity by Dynamic Vapour Sorption Analysis (DVS); type: physicochemical; details: 25° C.
Protocol: Dynamic Vapour Sorption Analysis (DVS)
The studies were undertaken using Dynamic Vapour Sorption Apparatus (DVS, Surface Measurement Systems, London UK). The apparatus consists of Cahn micobalance housed inside a temperature-controled cabinet. All experiments were performed at 25° C. The DVS was used to characterize the moisture uptake (w/w %) at different relative humidities (RH). Samples (5-10 mg) were weighed directly into the DSV sample cup and exposed to different relative humidities.

SMILES | photo stability compared with the hydrochloride salt and the free base [1] | moisture uptake ([2]; 40% relative humidity, citrate) | moisture uptake ([2]; 60% relative humidity, citrate) | moisture uptake ([2]; 80% relative humidity, citrate) | hygroscopicity compared with the hydrochloride salt ([2]; DVS) | moisture uptake ([2]; 40% relative humidity) | moisture uptake ([2]; 60% relative humidity) | moisture uptake ([2]; 80% relative humidity)
N#Cc1ccc2[nH]c(O)c(-c3ccc(CN4CCOCC4)cn3)c2c1 [Citrate, 2-hydroxy-3-[5-(morpholin-4-ylmethyl)pyridin-2-yl]1H-indole-5-carbonitrile citrate] | much higher photo stability | 7.1 w/w % | 7.6 w/w % | 8.0 w/w % | lower hygroscopicity | – | – | –
N#Cc1ccc2[nH]c(O)c(-c3ccc(CN4CCOCC4)cn3)c2c1 [HCl, hydrochloride salt of 2-hydroxy-3-[5-(morpholin-4-ylmethyl)pyridin-2-yl]1H-indole-5-carbonitrile, reference compound] | – | – | – | – | – | 8.7 w/w % | 11.5 w/w % | 13.0 w/w %
